Measured values taken from US5260465A, “Inhibitors of farnesyl protein transferase” (Merck & Co., Inc., priority 1991, dated 1993).

Assays:
[1] = pH-dependent equilibrium / solution form of anhydride (9) and diacid (10), followed by UV; format: physicochemical; details: for predominant form in solution (diacid/anhydride equilibrium): in a solution, pH dependent
Excerpt: The equilibrium between diacid (10) and anhydride (9) in a solution is pH dependent. […] However, when basified with dil NaOH, this maximum shifted to λmax 243 run. This shift is clear evidence of opening of the anhydride into the diacid. [drawing 8]
The latter band underwent a hypsochromic shift to 240 run after addition of dil NAOH.

[2] = target: T1, Farnesyl-protein transferase (FTase) from bovine brain (Bos taurus, UniProt P29702+P49355); test: Inhibition of Ras farnesylation in vitro (FTase assay with Ras-CVLS and [3H]FPP); format: biochemical; details: for IC50: Ras-CVLS 3.5 μM, 0.25 μM [3H]FPP, partially purified enzyme, compound (9) or (10), under assay conditions open dicarboxylate form
T1 construct: Farnesyl-protein transferase (FTase) from bovine brain was chromatographed on DEAE-Sephacel; from tissue; host or cells: bovine brain, partially purified (DEAE-Sephacel, N-octyl agarose, mono Q)
Protocol: The intrinsic farnesyl-protein transferase (FTase) activity of representative compounds of this invention was measured by the assay as described below:
Farnesyl-protein transferase (FTase) from bovine brain was chromatographed on DEAE-Sephacel (Pharmacia, 0-0.8M NaCl gradient elution), N-octyl agarose (Sigma, 0-0.6M NaCl gradient elution), and a mono Q HPLC column (Pharmacia, 0-0.3M NaCl gradient). Ras-CVLS (Cys-Val-Leu-Ser) at 3.5 μM, 0.25 μM [^3 H]FPP, and the indicated compounds were incubated with this partially purified enzyme preparation. The FTase inhibition data presented below is a measurement of the ability of the test compound to inhibit Ras farnesylation in vitro.

HMG-CoA reductase = details: cited from earlier work
Ras farnesylation = details: Hancock et al., Casey et al., Schafer et al.; cited from earlier work

With `CCCCCCCC/C=C\CCCCCC/C(C(=O)O)=C(\C)C(=O)O` [Compound (10)] the “form under assay conditions” value ([1]; CH3OH-HEPES buffer solution (7:5), pH 7.5) was “exists substantially in the open dicarboxylate form”, the “predominant form in solution (diacid/anhydride equilibrium)” value [1] was “predominates when the solution is basic” and the “existence in solution by pH” value ([1]; in solution) was “exists in solution at pH 7 and above”. For the same molecule, the IC50 [2] was 110 nM and the “Ras farnesyl transferase inhibitory activity of the diisopropylethylamine salt” value ([2]; open diacid (10) trapped as a diisopropylethylamine salt) was “without any loss of Ras farnesyl transferase inhibitory activity”.
In the case of `CC[C@H](C)C(=O)O[C@H]1CCC=C2C=C[C@H](C)[C@H](CC[C@@H]3C[C@@H](O)CC(=O)O3)[C@H]21` [compactin], the “inhibition of HMG-CoA reductase” value (HMG-CoA reductase) is listed as “inhibit HMG-CoA reductase” and the “Inhibition of Ras farnesylation in vivo” value (Ras farnesylation) is listed as “Inhibition of Ras farnesylation in vivo has been demonstrated”.
In the case of `CCCCCCCC/C=C\CCCCCCC1=C(C)C(=O)OC1=O` [Compound (9)], the “predominant form in solution (diacid/anhydride equilibrium)” value [1] is reported as “predominates when the solution is acidic”, the “reactivity with CH3OH” value ([1]; methanolic solution) is reported as “reacts slowly with CH3 OH” and the IC50 [2] is reported as 110 nM.
In the case of `CC[C@H](C)C(=O)O[C@H]1C[C@@H](C)C=C2C=C[C@H](C)[C@H](CC[C@@H]3C[C@@H](O)CC(=O)O3)[C@H]21` [lovastatin], the “inhibition of HMG-CoA reductase” value (HMG-CoA reductase) is given as “inhibit HMG-CoA reductase” and the “Inhibition of Ras farnesylation in vivo” value (Ras farnesylation) is given as “Inhibition of Ras farnesylation in vivo has been demonstrated”.
